From ChEMBL document CHEMBL4251732, “Discovery of Novel Indoleamine 2,3-Dioxygenase 1 (IDO1) and Histone Deacetylase (HDAC) Dual Inhibitors” (ACS Med Chem Lett, 2018)
Active and inactive are the calls of the source. The calls are words filed in the database; no cut-off is given here.

Key:
[1] = system: HCT-116; test: Induction of apoptosis in human HCT116 cells at 10 uM after 48 hrs by Annexin V-FITC/propidium iodide staining based flow cytometry relative to control; type: functional
[2] = system: Mus musculus; test: In vivo inhibition of IDO1 in wild type C57BL/6 mouse assessed as reduction in kynurenine levels in plasma at 100 mg/kg, po administered via gavage after 3 to 8 hrs by LC-MS/MS analysis; type: functional, organism-based
[3] = system: HCT-116; test: Induction of apoptosis in human HCT116 cells after 48 hrs by Annexin V-FITC/propidium iodide staining based flow cytometry; type: functional, cell-based
[4] = Tmax in Sprague-Dawley rat at 2 mg/kg, iv administered as single dose by LC-MS/MS analysis; type: ADME, organism-based; conditions: in vivo
[5] = target: T1, Indoleamine 2,3-dioxygenase 1 (Homo sapiens, UniProt P14902); test: Inhibition of recombinant human GST-tagged IDO1 (1 to 404 residues) using D-Tryptophan as substrate
T1 sequence (P14902 whole entry, the tested form may be a part): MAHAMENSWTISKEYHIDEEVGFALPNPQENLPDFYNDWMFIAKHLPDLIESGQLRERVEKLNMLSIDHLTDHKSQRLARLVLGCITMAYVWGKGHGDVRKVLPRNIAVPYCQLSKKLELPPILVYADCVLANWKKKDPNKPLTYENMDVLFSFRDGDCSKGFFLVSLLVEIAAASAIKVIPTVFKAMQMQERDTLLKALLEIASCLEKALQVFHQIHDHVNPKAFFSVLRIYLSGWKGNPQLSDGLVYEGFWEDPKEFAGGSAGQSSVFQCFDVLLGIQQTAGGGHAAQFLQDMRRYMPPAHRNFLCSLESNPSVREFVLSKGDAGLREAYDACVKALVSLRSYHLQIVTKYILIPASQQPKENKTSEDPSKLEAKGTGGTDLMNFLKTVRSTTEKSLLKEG

[6] = Half life in immunocompetent C57BL/6 mouse implanted with mouse LLC cells at 100 mg/kg, po bid administered via gavage; type: ADME, organism-based; conditions: in vivo
[7] = Solubility of the compound in water; type: physicochemical
[8] = Half life in Sprague-Dawley rat at 2 mg/kg, iv administered as single dose by LC-MS/MS analysis; type: ADME, organism-based; conditions: in vivo
[9] = system: HCT-116; test: Cell cycle arrest in human HCT116 cells assessed as accumulation at G2/M phase by propidium iodide staining based flow cytometry; type: functional; conditions: TDE = time-dependent effect
[10] = Half life in Sprague-Dawley rat at 100 mg/kg, po administered as single dose via gavage by LC-MS/MS analysis; type: ADME, organism-based; conditions: in vivo
[11] = system: HCT-116; test: Induction of apoptosis in human HCT116 cells at 20 uM after 48 hrs by Annexin V-FITC/propidium iodide staining based flow cytometry relative to control; type: functional
[12] = Half life in mouse liver microsomes at 1 uM by LC-MS/MS analysis; type: ADME, microsome
[13] = target: Histone deacetylase 1 (Homo sapiens, UniProt Q13547); test: Inhibition of recombinant human full length HDAC1 using fluorogenic substrate 3 after 30 mins by fluorescence assay
Histone deacetylase 1, sequence (Q13547 whole entry): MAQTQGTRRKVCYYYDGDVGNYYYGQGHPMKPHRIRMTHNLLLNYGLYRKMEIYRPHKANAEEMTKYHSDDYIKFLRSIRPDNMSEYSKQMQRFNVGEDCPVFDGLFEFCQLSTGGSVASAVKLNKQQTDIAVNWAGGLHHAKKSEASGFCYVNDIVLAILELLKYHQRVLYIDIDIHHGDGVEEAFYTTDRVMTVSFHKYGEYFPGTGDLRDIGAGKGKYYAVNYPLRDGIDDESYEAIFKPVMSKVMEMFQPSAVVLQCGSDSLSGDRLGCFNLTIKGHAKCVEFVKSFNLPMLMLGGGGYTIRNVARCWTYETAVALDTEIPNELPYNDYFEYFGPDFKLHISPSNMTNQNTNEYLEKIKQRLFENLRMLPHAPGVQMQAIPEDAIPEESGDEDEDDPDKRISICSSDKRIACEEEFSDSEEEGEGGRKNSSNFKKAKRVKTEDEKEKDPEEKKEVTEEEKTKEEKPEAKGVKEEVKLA

[14] = Cmax in Sprague-Dawley rat at 2 mg/kg, iv administered as single dose by LC-MS/MS analysis; type: ADME, organism-based; set-up: dose 2 mg/kg, route intravenous; conditions: in vivo
[15] = Tmax in Sprague-Dawley rat at 100 mg/kg, po administered as single dose via gavage by LC-MS/MS analysis; type: ADME, organism-based; conditions: in vivo
[16] = system: Mus musculus; test: Toxicity in immunocompetent C57BL/6 mouse assessed as body weight loss at 100 mg/kg, po bid administered via gavage for 14 consecutive days measured 3 times per week; type: organism-based; conditions: in vivo
[17] = system: HCT-116; test: Antiproliferative activity against human HCT116 cells after 48 hrs by CCK-8 assay; type: functional, cell-based; conditions: HCT-116, 48 h
[18] = system: HCT-116; test: Induction of apoptosis in human HCT116 cells at 5 uM after 48 hrs by Annexin V-FITC/propidium iodide staining based flow cytometry relative to control; type: functional
[19] = Apparent clearance in mouse liver microsomes; type: ADME, microsome
[20] = system: HT-29; test: Antiproliferative activity against human HT-29 cells after 48 hrs by CCK-8 assay; type: functional, cell-based; conditions: HT-29, 48 h
[21] = Oral bioavailability in Sprague-Dawley rat at 100 mg/kg administered as single dose via gavage by LC-MS/MS analysis; type: ADME, organism-based; conditions: in vivo
[22] = system: Lewis lung carcinoma cell line; test: Antiproliferative activity against mouse LLC cells after 48 hrs by CCK-8 assay; type: functional, cell-based
[23] = AUC in immunocompetent C57BL/6 mouse implanted with mouse LLC cells at 100 mg/kg, po bid administered via gavage; type: ADME, organism-based; conditions: in vivo
[24] = Ratio of LC50 for human HeLa cells to EC50 for IDO1 in IFN-gamma-stimulated human HeLa cells; type: toxicity
[25] = target: Histone deacetylase 3 (Homo sapiens, UniProt O15379); test: Inhibition of HDAC3 (unknown origin) using substrate 3 after 30 mins by fluorescence assay
Histone deacetylase 3, sequence (O15379 whole entry): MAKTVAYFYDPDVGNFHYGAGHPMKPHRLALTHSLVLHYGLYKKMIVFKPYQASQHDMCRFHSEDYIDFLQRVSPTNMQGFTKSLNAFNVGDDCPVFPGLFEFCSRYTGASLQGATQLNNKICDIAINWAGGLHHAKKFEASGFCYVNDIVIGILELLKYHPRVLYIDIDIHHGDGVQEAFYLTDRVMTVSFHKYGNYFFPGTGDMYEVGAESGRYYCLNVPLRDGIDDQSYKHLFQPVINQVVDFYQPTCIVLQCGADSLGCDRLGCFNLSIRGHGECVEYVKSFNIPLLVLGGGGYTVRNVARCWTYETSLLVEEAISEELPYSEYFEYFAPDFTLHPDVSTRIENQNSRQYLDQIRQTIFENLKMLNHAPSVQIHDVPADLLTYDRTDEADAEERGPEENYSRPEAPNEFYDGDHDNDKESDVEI

[26] = system: HeLa; test: Cytotoxicity against human HeLa cells assessed as inhibition of cell growth after 48 hrs by CCK-8 assay; type: cell-based
[27] = target: T1, Indoleamine 2,3-dioxygenase 1; test: Inhibition of IDO1 in IFN-gamma-stimulated human HeLa cells assessed as decrease in kynurenine levels after 48 hrs; type: cell-based
[28] = target: Histone deacetylase 2 (Homo sapiens, UniProt Q92769); test: Inhibition of HDAC2 (unknown origin) using substrate 3 after 30 mins by fluorescence assay
Histone deacetylase 2, sequence (Q92769 whole entry): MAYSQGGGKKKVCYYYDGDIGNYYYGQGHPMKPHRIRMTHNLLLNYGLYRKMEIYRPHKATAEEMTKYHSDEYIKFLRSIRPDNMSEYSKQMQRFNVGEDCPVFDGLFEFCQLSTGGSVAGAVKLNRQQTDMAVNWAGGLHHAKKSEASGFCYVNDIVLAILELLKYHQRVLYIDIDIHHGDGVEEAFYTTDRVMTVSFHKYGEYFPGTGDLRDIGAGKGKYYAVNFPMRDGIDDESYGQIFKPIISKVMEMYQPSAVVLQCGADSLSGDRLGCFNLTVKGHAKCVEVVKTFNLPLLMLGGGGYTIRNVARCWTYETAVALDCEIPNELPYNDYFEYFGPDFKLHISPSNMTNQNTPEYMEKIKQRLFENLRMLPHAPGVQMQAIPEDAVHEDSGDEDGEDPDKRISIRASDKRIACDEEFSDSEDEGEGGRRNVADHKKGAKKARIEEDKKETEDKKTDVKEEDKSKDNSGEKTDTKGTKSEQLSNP

[29] = Cmax in Sprague-Dawley rat at 100 mg/kg, po administered as single dose via gavage by LC-MS/MS analysis; type: ADME, organism-based; set-up: dose 100 mg/kg, route oral; conditions: in vivo
[30] = system: HCT-116; test: Cell cycle arrest in human HCT116 cells assessed as accumulation at G2/M phase up to 48 hrs by propidium iodide staining based flow cytometry (reference value: 27.2%); type: functional
[31] = system: Lewis lung carcinoma cell line; test: Antitumor activity against mouse LLC cells implanted in immunocompetent C57BL/6 mouse assessed as tumor growth inhibition at 100 mg/kg, po bid administered via gavage for 14 consecutive days measured every 4 days relative to control; type: functional; conditions: 96 h, read-out: TGI
[32] = AUC (0 to infinity) in Sprague-Dawley rat at 2 mg/kg, iv administered as single dose by LC-MS/MS analysis; type: ADME, organism-based; set-up: dose 2 mg/kg, time infinity, route intravenous; conditions: in vivo
[33] = Stability of the compound in PBS buffer after 24 hrs; type: physicochemical
[34] = system: CT26; test: Antiproliferative activity against mouse CT26 cells after 48 hrs by CCK-8 assay; type: functional, cell-based; conditions: CT26, 48 h
[35] = system: A549; test: Antiproliferative activity against human A549 cells after 48 hrs by CCK-8 assay; type: functional, cell-based; conditions: A549, 48 h
[36] = AUC (0 to infinity) in Sprague-Dawley rat at 100 mg/kg, po administered as single dose via gavage by LC-MS/MS analysis; type: ADME, organism-based; set-up: dose 100 mg/kg, time infinity, route oral; conditions: in vivo
[37] = target: T2, Protein deacetylase HDAC6 (Homo sapiens, UniProt Q9UBN7); test: Inhibition of HDAC6 (unknown origin) using substrate 3 after 30 mins by fluorescence assay
T2 sequence (Q9UBN7 whole entry): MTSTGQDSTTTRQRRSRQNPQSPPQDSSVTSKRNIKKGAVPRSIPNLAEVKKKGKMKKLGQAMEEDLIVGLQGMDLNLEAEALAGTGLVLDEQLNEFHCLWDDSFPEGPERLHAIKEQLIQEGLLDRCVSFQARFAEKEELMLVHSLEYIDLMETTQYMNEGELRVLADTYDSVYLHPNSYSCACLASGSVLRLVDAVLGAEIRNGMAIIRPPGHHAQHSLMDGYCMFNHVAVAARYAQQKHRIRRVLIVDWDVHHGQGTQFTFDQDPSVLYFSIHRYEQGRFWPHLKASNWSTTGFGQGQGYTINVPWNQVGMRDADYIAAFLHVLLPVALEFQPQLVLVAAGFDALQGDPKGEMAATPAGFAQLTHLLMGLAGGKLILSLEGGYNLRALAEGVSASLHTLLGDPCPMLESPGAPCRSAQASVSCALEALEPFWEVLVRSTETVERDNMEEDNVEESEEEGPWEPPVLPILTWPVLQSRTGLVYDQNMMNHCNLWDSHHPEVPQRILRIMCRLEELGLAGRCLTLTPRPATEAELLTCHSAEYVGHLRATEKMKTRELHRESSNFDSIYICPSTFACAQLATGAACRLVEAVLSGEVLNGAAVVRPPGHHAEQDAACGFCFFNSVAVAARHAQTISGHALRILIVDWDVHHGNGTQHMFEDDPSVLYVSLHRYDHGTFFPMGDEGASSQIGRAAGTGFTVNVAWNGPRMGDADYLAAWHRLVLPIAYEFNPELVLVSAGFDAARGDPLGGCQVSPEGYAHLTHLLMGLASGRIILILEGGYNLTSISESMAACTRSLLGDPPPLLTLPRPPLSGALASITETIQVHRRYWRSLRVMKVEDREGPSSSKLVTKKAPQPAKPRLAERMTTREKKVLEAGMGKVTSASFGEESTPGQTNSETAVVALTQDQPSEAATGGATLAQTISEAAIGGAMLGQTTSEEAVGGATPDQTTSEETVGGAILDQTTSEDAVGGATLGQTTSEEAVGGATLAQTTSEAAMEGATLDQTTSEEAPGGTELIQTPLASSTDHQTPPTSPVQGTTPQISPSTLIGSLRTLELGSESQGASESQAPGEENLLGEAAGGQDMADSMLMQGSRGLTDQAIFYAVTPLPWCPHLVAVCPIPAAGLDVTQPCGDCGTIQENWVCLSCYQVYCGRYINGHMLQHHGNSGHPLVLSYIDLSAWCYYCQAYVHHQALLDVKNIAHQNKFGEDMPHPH

In the case of `Nc1ccccc1NC(=O)c1ccc(C(=O)NCCNc2nonc2/C(=N/O)Nc2ccc(F)c(Br)c2)cc1`, the Activity [1] is reported as 29.9%, the inhibition [2] is reported as “Active” and the Activity [3] is reported as “Dose-dependent effect”. The Tmax [4] was 4.98 min, the IC50 [5] was 69 nM and the half-life [6] was 3.4 h. For the same compound, the solubility [7] was under 10 µg/mL, the half-life [8] was 1.4 h and the Activity [9] was “Tde”. It also gave a half-life [10] of 3.4 h, an Activity [11] of 48.9% and a half-life at 1 µM [12] of 0.806 h. It also gave an IC50 [13] of 66.5 nM, a Cmax [14] of 12000 ng/mL and a Tmax [15] of 2 h. The Activity [16] was “Non-Toxic”, the IC50 [17] was 5120 nM and the Activity [18] was 18.8%. For the same compound, the “CL(app)” value [19] was 28.7 µL/min/mg, the IC50 [20] was 11700 nM and the bioavailability [21] was 18%. It also gave an IC50 [22] of 17600 nM, an AUC [23] of 60 µM·h and a selectivity ratio [24] of 60.4. For the same compound, the IC50 [25] was 45 nM, the LC50 [26] was 24770 nM and the EC50 [27] was 410 nM. The IC50 [28] was 179 nM, the Cmax [29] was 5760 ng/mL and the Activity [30] was 47.4%. The inhibition in vivo at 100 mg/kg [31] was 56%, the AUC(0-inf) [32] was 3650 ng·h/mL and the Stability [33] was “Stable”. For the same compound, the IC50 [34] was 59800 nM, the IC50 [35] was 16700 nM and the AUC(0-inf) [36] was 33500 ng·h/mL. It also gave an IC50 [37] of 70 nM.
